Source: ChEMBL document CHEMBL1146884, “Effect of lysine at C-terminus of the Dmt-Tic opioid pharmacophore” (J Med Chem, 2006)
pIC50, pKi: −log10 of the molar value. Where a SMILES comes first, the peptide text is derived from it. [ ]: non-standard residue; d: D form. The star is where a group is joined. Dmt = Cc1cc(O)cc(C)c1C[C@H](N)C(=O)O; Tic = O=C(O)[C@@H]1Cc2ccccc2CN1; Cbz = O=C(OCc1ccccc1)*; NHBn = c1ccc(CN*)cc1; NHPh = c1ccc(N*)cc1

What was measured:
Mu-type opioid receptor [1] = biological target: Mu-type opioid receptor (Rattus norvegicus, UniProt P33535); test: Displacement of [3H]DAMGO from mu opioid receptor in Sprague-Dawley rat brain P2 synaptosomal membrane
[2] = biological target: T1, Delta-type opioid receptor (Mus musculus, UniProt P32300); test: Agonist activity at delta opioid receptor assessed as inhibition of electrically-evoked contraction of mouse vas deferens; format: functional, tissue-based
[3] = biological target: T1, Delta-type opioid receptor; test: Antagonist activity at delta opioid receptor assessed as inhibition of deltorphin-2-induced contraction of mouse vas deferens
[4] = biological target: Delta-type opioid receptor (Rattus norvegicus, UniProt P33533); test: Displacement of [3H]deltorphin2 from delta opioid receptor in Sprague-Dawley rat brain P2 synaptosomal membrane
Mu-type opioid receptor [5] = biological target: T2, Mu-type opioid receptor (Cavia porcellus, UniProt P97266); test: Agonist activity at mu opioid receptor assessed as inhibition of electrically-evoked contraction of guinea pig ileum; format: functional, tissue-based
[6] = biological target: Opioid receptors; mu & delta (Rattus norvegicus) (UniProt P33533+P33535); test: Selectivity for delta opioid receptor over mu opioid receptor in Sprague-Dawley rat brain P2 synaptosomal membrane
Mu-type opioid receptor [7] = biological target: T2, Mu-type opioid receptor; test: Antagonist activity at mu opioid receptor assessed as inhibition of endomorphin-2-induced contraction of guinea pig ileum; format: functional, tissue-based; conditions: read-out: pA2 (converted)

T1 sequence (P32300 whole entry): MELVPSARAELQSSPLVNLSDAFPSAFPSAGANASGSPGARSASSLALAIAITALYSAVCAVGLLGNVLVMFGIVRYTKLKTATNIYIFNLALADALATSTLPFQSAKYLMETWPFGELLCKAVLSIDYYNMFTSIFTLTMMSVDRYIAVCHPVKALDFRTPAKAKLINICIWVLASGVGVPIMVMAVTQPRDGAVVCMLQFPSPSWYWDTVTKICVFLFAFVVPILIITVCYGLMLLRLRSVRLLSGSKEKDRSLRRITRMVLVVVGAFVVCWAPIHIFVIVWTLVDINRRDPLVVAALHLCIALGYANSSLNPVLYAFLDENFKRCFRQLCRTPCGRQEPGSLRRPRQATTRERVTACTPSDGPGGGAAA
Opioid receptors; mu & delta (Rattus norvegicus), sequence (P33533 whole entry, looked up): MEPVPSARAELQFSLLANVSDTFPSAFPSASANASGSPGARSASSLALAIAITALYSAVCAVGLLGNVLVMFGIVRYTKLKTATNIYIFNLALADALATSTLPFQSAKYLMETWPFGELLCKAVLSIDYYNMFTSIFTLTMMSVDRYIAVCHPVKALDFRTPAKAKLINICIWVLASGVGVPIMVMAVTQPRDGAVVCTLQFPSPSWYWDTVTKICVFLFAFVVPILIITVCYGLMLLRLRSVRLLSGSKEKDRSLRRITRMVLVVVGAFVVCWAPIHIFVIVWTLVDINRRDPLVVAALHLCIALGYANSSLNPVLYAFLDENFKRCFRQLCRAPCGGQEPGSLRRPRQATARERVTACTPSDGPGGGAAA
Opioid receptors; mu & delta (Rattus norvegicus), sequence (P33535 whole entry, looked up): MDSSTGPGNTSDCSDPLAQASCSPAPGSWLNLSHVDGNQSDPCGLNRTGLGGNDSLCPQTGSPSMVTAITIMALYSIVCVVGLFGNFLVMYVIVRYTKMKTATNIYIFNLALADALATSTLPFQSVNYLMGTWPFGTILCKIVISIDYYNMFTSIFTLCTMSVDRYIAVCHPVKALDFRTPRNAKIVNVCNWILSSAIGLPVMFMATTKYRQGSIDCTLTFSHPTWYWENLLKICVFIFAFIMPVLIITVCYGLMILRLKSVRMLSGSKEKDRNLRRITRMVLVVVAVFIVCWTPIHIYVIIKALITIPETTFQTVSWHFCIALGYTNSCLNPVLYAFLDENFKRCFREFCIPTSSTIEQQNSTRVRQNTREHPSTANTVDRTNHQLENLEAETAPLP
Delta-type opioid receptor (Rattus norvegicus, UniProt P33533), sequence (P33533 whole entry): as the sequence (P33533 whole entry, looked up) above
Mu-type opioid receptor (Rattus norvegicus, UniProt P33535), sequence (P33535 whole entry): as the sequence (P33535 whole entry, looked up) above
T2 sequence (P97266 whole entry): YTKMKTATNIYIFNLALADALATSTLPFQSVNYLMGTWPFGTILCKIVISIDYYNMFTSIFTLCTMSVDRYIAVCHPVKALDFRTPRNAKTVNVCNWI

Structure (SMILES) | pKi (Mu-type opioid receptor [1]) | pIC50 [2] | Kb [3] | pKi [4] | pIC50 (Mu-type opioid receptor [5]) | Ratio Ki [6] | Kb (Mu-type opioid receptor [7])
Cc1cc(O)cc(C)c1C[C@H](N)C(=O)N1Cc2ccccc2C[C@H]1C(=O)N[C@H](CCCCNC(=O)OCc1ccccc1)c1nc2ccccc2[nH]1 | 9.82 | < 5.00 | > 10000 nM | 9.40 | 7.20 |  | 
Cc1cc(O)cc(C)c1C[C@H](N)C(=O)N1Cc2ccccc2C[C@H]1C(=O)N[C@@H](CCCCNC(=O)OCc1ccccc1)C(=O)Nc1ccccc1 (H-[Dmt]-[Tic]-Lys(Cbz)-NHPh) | 8.83 | < 5.00 | 1700 nM | 9.24 | 6.36 | 3 | 
Cc1cc(O)cc(C)c1C[C@H](N)C(=O)N1Cc2ccccc2C[C@H]1C(=O)N[C@@H](CCCCN)c1nc2ccccc2[nH]1 | 9.80 | < 5.00 |  | 9.31 | 7.40 |  | 
CC(=O)NCCCC[C@H](NC(=O)[C@@H]1Cc2ccccc2CN1C(=O)[C@@H](N)Cc1c(C)cc(O)cc1C)C(=O)NCc1ccccc1 (H-[Dmt]-[Tic]-Lys(Ac)-NHBn) | 8.26 | < 5.00 | 0.0398 nM | 10.17 | < 5.00 | 81 | 6.92 nM
Cc1cc(O)cc(C)c1C[C@H](N)C(=O)N1Cc2ccccc2C[C@H]1C(=O)NCC(=O)O (H-[Dmt]-[Tic]-Gly-OH) | 6.28 |  | 1.41 nM | 8.86 |  | 383 | 
Cc1cc(O)cc(C)c1C[C@H](N)C(=O)N1Cc2ccccc2C[C@H]1C(=O)N[C@@H](CCCCN)C(=O)Nc1ccccc1 (H-[Dmt]-[Tic]-Lys-NHPh) | 9.03 | < 5.00 | 4170 nM | 9.38 | 5.90 | 2 | 
Cc1cc(O)cc(C)c1C[C@H](N)C(=O)N1Cc2ccccc2C[C@H]1C(=O)N[C@@H](CCCCNC(=O)OCc1ccccc1)c1nc2ccccc2[nH]1 | 9.43 | 5.04 | > 10000 nM | 9.19 | 6.43 |  | 
CC(=O)NCCCC[C@H](NC(=O)[C@@H]1Cc2ccccc2CN1C(=O)[C@@H](N)Cc1c(C)cc(O)cc1C)c1nc2ccccc2[nH]1 | 9.89 | < 5.00 |  | 9.74 | 7.27 |  | 
Cc1cc(O)cc(C)c1C[C@H](N)C(=O)N1Cc2ccccc2C[C@H]1C(=O)N[C@@H](CCCCN)C(=O)NCc1ccccc1 (H-[Dmt]-[Tic]-Lys-NHBn) | 8.39 | < 5.00 | 977 nM | 9.30 | < 5.00 | 8 | 11 nM
Cc1cc(O)cc(C)c1C[C@H](N)C(=O)N1Cc2ccccc2C[C@H]1C(=O)N[C@@H](CCCCNC(=O)OCc1ccccc1)C(=O)NCc1ccccc1 (H-[Dmt]-[Tic]-Lys(Cbz)-NHBn) | 8.36 | < 5.00 | 617 nM | 9.51 | < 5.00 | 14 | 1510 nM
CC(=O)NCCCC[C@H](NC(=O)[C@@H]1Cc2ccccc2CN1C(=O)[C@@H](N)Cc1c(C)cc(O)cc1C)C(=O)Nc1ccccc1 (H-[Dmt]-[Tic]-Lys(Ac)-NHPh) | 9.20 | < 5.00 | 0.001 nM | 9.89 | 5.90 | 5 | 
